{"source": "patent US9040527B2", "about": "“Pyrimidinediamine kinase inhibitors” (Rigel Pharmaceuticals, Inc., priority 2008, dated 2015)", "key": {"PLK1 [1]": {"target": "T1, PLK1 (Homo sapiens, UniProt P53350)", "T1 sequence (P53350 whole entry)": "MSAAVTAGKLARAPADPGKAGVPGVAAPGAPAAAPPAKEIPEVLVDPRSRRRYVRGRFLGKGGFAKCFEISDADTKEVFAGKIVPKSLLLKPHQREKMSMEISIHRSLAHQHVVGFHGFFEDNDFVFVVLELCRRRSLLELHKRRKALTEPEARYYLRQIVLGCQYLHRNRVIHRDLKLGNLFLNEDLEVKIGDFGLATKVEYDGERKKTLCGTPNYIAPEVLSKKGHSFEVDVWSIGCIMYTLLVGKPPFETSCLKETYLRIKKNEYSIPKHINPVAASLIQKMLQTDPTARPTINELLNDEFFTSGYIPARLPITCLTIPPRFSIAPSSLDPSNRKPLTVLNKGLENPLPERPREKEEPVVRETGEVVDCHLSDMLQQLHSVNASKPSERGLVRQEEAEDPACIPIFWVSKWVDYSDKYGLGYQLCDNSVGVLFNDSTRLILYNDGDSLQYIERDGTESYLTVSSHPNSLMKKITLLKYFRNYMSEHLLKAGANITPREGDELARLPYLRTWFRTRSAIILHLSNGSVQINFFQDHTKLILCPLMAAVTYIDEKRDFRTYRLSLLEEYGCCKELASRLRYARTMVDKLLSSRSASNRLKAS", "test": "Cellular PLK1 assay in K562 cells overexpressing CDC25C", "format": "cell-based", "parameters": "endogenous in cells; host or cells: K562 (human chronic myelogenous leukemia) overexpressing CDC25C, nocodazole-arrested", "conditions": "nocodazole arrested, cdc25c p-Ser198 readout", "method_in_brief": "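K562 cells overexpressing CDC25C were arrested with 333 nM nocodazole for 18 h at 37 °C, then exposed to compound at 8 points from 10 μM to 0.005 μM in duplicate for 120 min. After fixation and permeabilization, cells were stained for cdc25c pSer198 with a PE secondary and read by flow cytometry, 10,000 cells per well.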"}, "PLK1 [2]": {"target": "T1, PLK1", "test": "In vitro PLK1 ELISA assay (biochemical)", "parameters": "purchased Cell Signalling 7728", "method_in_brief": "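Commercial PLK1 phosphorylates neutravidin-captured biotinylated CHK2 peptide for 45 min at room temperature in HEPES pH 7.2 with Mg2+/Mn2+/DTT, compounds at 10 μM to 0.005 μM. Phospho-CHK2(T68) antibody plus HRP secondary gives chemiluminescent read-out used for IC50.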"}, "[3]": {"conditions": "ELISA, CHK2-derived peptide substrate, read-out: PLK1 IC50 (μM) biochemical assay"}, "[4]": {"conditions": "read-out: IC50 in biochemical in vitro PLK1 ELISA assay (less than 10 μM)"}}}
{"molecule": "COc1ccc(CN2C(=O)COc3ccc(Nc4nc(Nc5cccc(N6CCN(C)CC6)c5)ncc4C)nc32)cc1", "note": "[compound 125, 4-(4-methoxybenzyl)-6-(5-methyl-2-(3-(4-methylpiperazin-1-yl)phenylamino)pyrimidin-4-ylamino)-2H-pyrido[3,2-b][1,4]oxazin-3(4H)-one]", "values": [{"measurement": "IC50", "setting": "PLK1 [1]", "result": "≥ 10", "unit": "µM"}, {"measurement": "IC50", "setting": "PLK1 [2]; [3]", "result": "5 to 10", "unit": "µM"}, {"measurement": "IC50", "setting": "PLK1 [2]; [4]", "result": "< 10", "unit": "µM"}]}
{"molecule": "Cc1cc(Nc2ncc(C)c(Nc3ccc4c(n3)N(CC3CCC3)C(=O)CO4)n2)ccc1N1CCN(C)CC1", "note": "[compound 115, 4-(cyclobutylmethyl)-6-(5-methyl-2-(3-methyl-4-(4-methylpiperazin-1-yl)phenylamino)pyrimidin-4-ylamino)-2H-pyrido[3,2-b][1,4]oxazin-3(4H)-one]", "values": [{"measurement": "IC50", "setting": "PLK1 [1]", "result": "≥ 10", "unit": "µM"}, {"measurement": "IC50", "setting": "PLK1 [2]; [3]", "result": "0.5 to 5", "unit": "µM"}, {"measurement": "IC50", "setting": "PLK1 [2]; [4]", "result": "< 10", "unit": "µM"}]}
{"molecule": "Cc1cc(Nc2ncc(C)c(Nc3ccc4c(n3)N(Cc3ccccc3)C(=O)CO4)n2)ccc1N1CCN(C)CC1", "note": "[compound 121, 4-benzyl-6-(5-methyl-2-(3-methyl-4-(4-methylpiperazin-1-yl)phenylamino)pyrimidin-4-ylamino)-2H-pyrido[3,2-b][1,4]oxazin-3(4H)-one]", "values": [{"measurement": "IC50", "setting": "PLK1 [1]", "result": "0.5 to 5", "unit": "µM"}, {"measurement": "IC50", "setting": "PLK1 [2]; [3]", "result": "≥ 10", "unit": "µM"}]}
